What all share (assay type): biochemical
Test [1] concerns the target human cathepsin L (CatL) (Homo sapiens (Human), UniProt P07711). The test is described as follows: CatL functional enzyme assay. The note with it: read-out: hCatL, inhibition [%] at 31.6 μM. The method, then: (§1) Reference and test compounds were assayed for inhibitory potency (IC50) against human cathepsins using the following assay setups:
(§2) Recombinant human cathepsins (CatS, CatK, CatL) were purchased from a Enzo Life Sciences. All assays were carried out in 96-well format using a buffer of 50 mM KH2PO4, 50 mM NaCl, 2 mM EDTA, 0.5 mM DTT and 1% Triton-X-100, pH 6.5 for Cathepsin S and a buffer of 50 mM NaOAc, 10 mM EDTA, 1 mM DTT and 0.01% Triton-X-100, pH 5.5 for CatK/L/B. For CatS, the enzyme (0.0007 mU/well) was incubated with fluorogeninc substrate (Z-VVR-AMC, 5 μM) at RT for 10 min. For CatK the enzyme (0.00175 mU/well) was incubated with fluorogeninc substrate (Z-FR-AMC, 40 μM) at RT for 10 min. For CatL, the enzyme (0.000874 mU/well) was incubated with fluorogeninc substrate (Z-VVR-AMC, 40 μM) at RT for 10 min. Flourogenic substrate turnover was detected using a microplate reader (Synergy™ H4, BioTek). Ki values were calculated using the Cheng Prusoff equation (Cheng & Prosoff 1973).

Test [2] concerns the target human cathepsin K (CatK) (Homo sapiens (Human), UniProt P43235). The test is described as follows: CatK functional enzyme assay. The settings on record: for Ki: recombinant human CatK, substrate Z-FR-AMC 40 μM, pH 5.5, Ki by Cheng Prusoff equation, read-out: hCatK, Ki. As to the method:
as §1, §2

The target in test [3] is human cathepsin S (CatS) (Homo sapiens (Human), UniProt P25774). The test is described as follows: CatS functional enzyme assay. The note with it: for Selectivity Ki(hCatS)/Ki(hCatK): ratio Ki(hCatS)/Ki(hCatK); for Ki: read-out: hCatS, Ki; for inhibition at 10 µM: read-out: hCatS, inhibition [%] at 10 μM. As to the method:
as §2, with “Reference and test compounds were assayed for inhibitory potency (IC50) against human cathepsins using the following assay setups: Recombinant” for “Recombinant”, “All assays were carried out in 96-well format using a buffer of 50 mM KH2PO4, 50 mM NaCl, 2 mM EDTA, 0.5 mM DTT and 1% Triton-X-100, pH 6.5 for Cathepsin S and a buffer of 50 mM NaOAc, 10 mM EDTA, 1 mM DTT and 0.01% Triton-X-100, pH 5.5 for CatK/L/B.” left out

Setting [4] is: recombinant human CatS, substrate Z-VVR-AMC 5 μM, pH 6.5, Ki by Cheng Prusoff equation.

Read-outs that look alike come from different tables or passages of the source.

human cathepsin L (CatL), sequence (P07711 114-333): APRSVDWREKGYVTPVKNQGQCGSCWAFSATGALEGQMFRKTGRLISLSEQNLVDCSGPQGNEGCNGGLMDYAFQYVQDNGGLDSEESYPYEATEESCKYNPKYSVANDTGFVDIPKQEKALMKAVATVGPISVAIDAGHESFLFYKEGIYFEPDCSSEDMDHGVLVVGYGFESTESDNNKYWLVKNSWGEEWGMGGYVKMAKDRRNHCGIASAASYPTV
human cathepsin S (CatS), sequence (P25774 115-331): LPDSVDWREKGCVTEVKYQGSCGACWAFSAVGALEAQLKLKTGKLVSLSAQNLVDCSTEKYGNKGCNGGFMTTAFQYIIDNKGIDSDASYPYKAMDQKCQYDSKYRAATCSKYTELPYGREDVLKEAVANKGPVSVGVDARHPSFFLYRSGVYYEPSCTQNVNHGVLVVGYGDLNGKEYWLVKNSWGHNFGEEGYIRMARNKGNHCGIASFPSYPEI
human cathepsin K (CatK), sequence (P43235 115-329): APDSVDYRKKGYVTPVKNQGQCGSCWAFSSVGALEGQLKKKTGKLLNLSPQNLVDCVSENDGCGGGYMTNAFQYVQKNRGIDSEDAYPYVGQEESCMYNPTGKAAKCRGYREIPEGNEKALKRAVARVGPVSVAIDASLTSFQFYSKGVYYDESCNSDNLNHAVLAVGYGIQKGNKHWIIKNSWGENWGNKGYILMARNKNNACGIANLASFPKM

What is called inhibition is the share of the control response that was lost under treatment. A word on the Ki: it is the dissociation constant of the complex between target and ligand, obtained from inhibition or displacement. For `O=C(N[C@H](C(=O)N1C[C@H](Cl)[C@H]2OCC(=O)[C@H]21)C1CCCCC1)c1ccc(-c2ccccn2)s1` [Example 1, N-((S)-2-((3aS,6S,6aS)-6-chloro-3-oxotetrahydro-2H-furo[3,2-b]pyrrol-4(5H)-yl)-1-cyclohexyl-2-oxoethyl)-5-(pyridin-2-yl)thiophene-2-carboxamide], the inhibition at 31.6 µM in test [1] was 3%. Further, the values for the Ki in test [2] and in test [3] were 14 nM and 402 nM, respectively. For the same compound, the “Selectivity Ki(hCatS)/Ki(hCatK)” value in test [3] was 28.7.

On to `O=C(N[C@H](C(=O)N1C[C@H](Cl)[C@H]2OCC(=O)[C@H]21)C1CCCCC1)c1ccc(-c2cccnc2)s1` [Example 2, N-((S)-2-((3aS,6S,6aS)-6-chloro-3-oxotetrahydro-2H-furo[3,2-b]pyrrol-4(5H)-yl)-1-cyclohexyl-2-oxoethyl)-5-(pyridin-3-yl)thiophene-2-carboxamide], for which, in test [1], the inhibition at 31.6 µM is 10%. Besides, the inhibition constant Ki in test [2] worked out at 5 nM. In test [3], the “Selectivity Ki(hCatS)/Ki(hCatK)” value is given as 23.0 and the inhibitory constant (Ki) was determined as 115 nM.

Regarding `O=C(N[C@H](C(=O)N1C[C@H](Cl)[C@H]2OCC(=O)[C@H]21)C1CCCCC1)c1ccc(-c2ccncc2)s1` [Example 3, N-((S)-2-((3aS,6S,6aS)-6-chloro-3-oxotetrahydro-2H-furo[3,2-b]pyrrol-4(5H)-yl)-1-cyclohexyl-2-oxoethyl)-5-(pyridin-4-yl)thiophene-2-carboxamide], in test [1], the inhibition at 31.6 µM stood at 5%. The values for the Ki in test [2] and in test [3] were 3 nM and 103 nM, respectively. For the same compound, in test [3], the “Selectivity Ki(hCatS)/Ki(hCatK)” value stood at 34.3.

Turning to `O=C(N[C@H](C(=O)N1C[C@H](Cl)[C@H]2OCC(=O)[C@H]21)C1CCCCC1)c1ccc(-c2cnccn2)s1` [Example 4, N-((S)-2-((3aS,6S,6aS)-6-chloro-3-oxotetrahydro-2H-furo[3,2-b]pyrrol-4(5H)-yl)-1-cyclohexyl-2-oxoethyl)-5-(pyrazin-2-yl)thiophene-2-carboxamide], the inhibition at 31.6 µM in test [1] stood at 17%. Also, the figures for the inhibition constant Ki in test [2] and in test [3] were 14 nM and 184 nM, respectively. Also, the “Selectivity Ki(hCatS)/Ki(hCatK)” value in test [3] turned out to be 13.1.

For `O=C(N[C@H](C(=O)N1C[C@H](Cl)[C@H]2OCC(=O)[C@H]21)C1CCCCC1)c1ccc(-c2cccnn2)s1` [Example 6, N-((S)-2-((3aS,6S,6aS)-6-chloro-3-oxotetrahydro-2H-furo[3,2-b]pyrrol-4(5H)-yl)-1-cyclohexyl-2-oxoethyl)-5-(pyridazin-3-yl)thiophene-2-carboxamide], the inhibition at 31.6 µM in test [1] amounted to 36%. For the same compound, the Ki is 11 nM in test [2] and 60 nM in test [3] (setting [4]). Moreover, in test [3], the “Selectivity Ki(hCatS)/Ki(hCatK)” value is listed as 5.5.

On to `O=C(N[C@H](C(=O)N1C[C@H](Cl)[C@H]2OCC(=O)[C@H]21)C1CCCCC1)c1ccc(-c2ncccn2)s1` [Example 9, N-((S)-2-((3aS,6S,6aS)-6-chloro-3-oxotetrahydro-2H-furo[3,2-b]pyrrol-4(5H)-yl)-1-cyclohexyl-2-oxoethyl)-5-(pyrimidin-2-yl)thiophene-2-carboxamide], for which, in test [1], the inhibition at 31.6 µM was 4%. The inhibition constant Ki in test [2] was 18 nM; in test [3] (setting [4]), 1470 nM. Further, the “Selectivity Ki(hCatS)/Ki(hCatK)” value in test [3] is 81.7.

In the case of `O=C(N[C@H](C(=O)N1C[C@H](Cl)[C@H]2OCC(=O)[C@H]21)C1CCCCC1)c1ccc(-c2cccnc2)o1` [Example 10, N-((S)-2-((3aS,6S,6aS)-6-chloro-3-oxotetrahydro-2H-furo[3,2-b]pyrrol-4(5H)-yl)-1-cyclohexyl-2-oxoethyl)-5-(pyridin-3-yl)furan-2-carboxamide], the inhibition at 31.6 µM in test [1] was 16%. Moreover, the “Selectivity Ki(hCatS)/Ki(hCatK)” value in test [3] is given as 11.3.

Take `O=C(N[C@H](C(=O)N1C[C@H](Cl)[C@H]2OCC(=O)[C@H]21)C1CCCCC1)c1ccc(-c2cncnc2)o1` [Example 11, N-((S)-2-((3aS,6S,6aS)-6-chloro-3-oxotetrahydro-2H-furo[3,2-b]pyrrol-4(5H)-yl)-1-cyclohexyl-2-oxoethyl)-5-(pyrimidin-5-yl)furan-2-carboxamide]: the inhibition at 31.6 µM in test [1] amounted to 14%. Besides, the Ki in test [2] was determined as 87 nM; in test [3] (setting [4]), 99 nM. In test [3], the “Selectivity Ki(hCatS)/Ki(hCatK)” value was 1.1.

In the case of `O=C(N[C@H](C(=O)N1C[C@H](Cl)[C@H]2OCC(=O)[C@H]21)C1CCCCC1)c1ccc(-c2ccncc2)o1` [Example 12, N-((S)-2-((3aS,6S,6aS)-6-chloro-3-oxotetrahydro-2H-furo[3,2-b]pyrrol-4(5H)-yl)-1-cyclohexyl-2-oxoethyl)-5-(pyridin-4-yl)furan-2-carboxamide], in test [1], the inhibition at 31.6 µM amounted to 18%. Further, the Ki is 50 nM in test [2] and 521 nM in test [3] (setting [4]). Moreover, the “Selectivity Ki(hCatS)/Ki(hCatK)” value in test [3] is 10.4.

With `O=C(N[C@H](C(=O)N1C[C@H](Cl)[C@H]2OCC(=O)[C@H]21)C1CCCCC1)c1cnc(-c2cccnc2)s1` [Example 13, N-((S)-2-((3aS,6S,6aS)-6-chloro-3-oxotetrahydro-2H-furo[3,2-b]pyrrol-4(5H)-yl)-1-cyclohexyl-2-oxoethyl)-2-(pyridin-3-yl)thiazole-5-carboxamide], the inhibition at 31.6 µM in test [1] was 16%. Moreover, in test [2], the Ki worked out at 29 nM. For the same compound, the inhibition at 10 µM in test [3] was 73%.

With `Cc1nc(-c2cccnc2)sc1C(=O)N[C@H](C(=O)N1C[C@H](Cl)[C@H]2OCC(=O)[C@H]21)C1CCCCC1` [Example 14, N-((S)-2-((3aS,6S,6aS)-6-chloro-3-oxotetrahydro-2H-furo[3,2-b]pyrrol-4(5H)-yl)-1-cyclohexyl-2-oxoethyl)-4-methyl-2-(pyridin-3-yl)thiazole-5-carboxamide], in test [1], the inhibition at 31.6 µM stood at 21%. Also, the inhibition at 10 µM in test [2] (read-out: hCatK, inhibition [%] at 10 μM) amounted to 88%; in test [3] it was 70%.

In the case of `O=C(N[C@H](C(=O)N1C[C@H](Cl)[C@H]2OCC(=O)[C@H]21)C1CCCCC1)c1cnc(-c2ccnnc2)o1` [Example 21, N-((S)-2-((3aS,6S,6aS)-6-chloro-3-oxotetrahydro-2H-furo[3,2-b]pyrrol-4(5H)-yl)-1-cyclohexyl-2-oxoethyl)-2-(pyridazin-4-yl)oxazole-5-carboxamide], the inhibition at 31.6 µM in test [1] turned out to be 15%. Moreover, in test [3], the “Selectivity Ki(hCatS)/Ki(hCatK)” value is 1.9.

As for `O=C(N[C@H](C(=O)N1C[C@H](Cl)[C@H]2OCC(=O)[C@H]21)C1CCCCC1)c1ccc(-c2ccncn2)o1` [Example 27, N-((S)-2-((3aS,6S,6aS)-6-chloro-3-oxotetrahydro-2H-furo[3,2-b]pyrrol-4(5H)-yl)-1-cyclohexyl-2-oxoethyl)-5-(pyrimidin-4-yl)furan-2-carboxamide], in test [1], the inhibition at 31.6 µM is 18%. For the same compound, the “Selectivity Ki(hCatS)/Ki(hCatK)” value in test [3] is 2.7.

`O=C(N[C@H](C(=O)N1C[C@H](Cl)[C@H]2OCC(=O)[C@H]21)C1CCCCC1)c1nnc(-c2ccncc2)s1` [Example 28, N-((S)-2-((3aS,6S,6aS)-6-chloro-3-oxotetrahydro-2H-furo[3,2-b]pyrrol-4(5H)-yl)-1-cyclohexyl-2-oxoethyl)-5-(pyridin-4-yl)-1,3,4-thiadiazole-2-carboxamide]: the inhibition at 31.6 µM in test [1] was 14%. Moreover, the inhibition at 10 µM in test [3] was found to be 83%.

`Cc1nccc(-c2ccc(C(=O)N[C@H](C(=O)N3C[C@H](Cl)[C@H]4OCC(=O)[C@H]43)C3CCCCC3)s2)n1` [Example 29, N-((S)-2-((3aS,6S,6aS)-6-chloro-3-oxotetrahydro-2H-furo[3,2-b]pyrrol-4(5H)-yl)-1-cyclohexyl-2-oxoethyl)-5-(2-methylpyrimidin-4-yl)thiophene-2-carboxamide]: the inhibition at 31.6 µM in test [1] worked out at 6%. For the same compound, the “Selectivity Ki(hCatS)/Ki(hCatK)” value in test [3] was 26.4.

`COc1ccc(-c2ccc(C(=O)N[C@H](C(=O)N3C[C@H](Cl)[C@H]4OCC(=O)[C@H]43)C3CCCCC3)s2)nn1` [Example 34, N-((S)-2-((3aS,6S,6aS)-6-chloro-3-oxotetrahydro-2H-furo[3,2-b]pyrrol-4(5H)-yl)-1-cyclohexyl-2-oxoethyl)-5-(6-methoxypyridazin-3-yl)thiophene-2-carboxamide]: the inhibition at 31.6 µM in test [1] was found to be 15%. Besides, the “Selectivity Ki(hCatS)/Ki(hCatK)” value in test [3] amounted to 21.5.

The record behind these values is patent US9725459B2, “3-oxo-tetrahydro-furo[3,2-B]pyrrol-4(5H)-yl) derivatives I” (GRÜNENTHAL GMBH, priority 2014, dated 2017).
